Assay results as given in ChEMBL document CHEMBL1133025, “The utilization of a unified pharmacophore query in the discovery of new antagonists of the adenosine receptor family” (Bioorg Med Chem Lett, 2000).
pIC50, pKi: −log10 of the molar value.

What was measured:
[1] = molecular target: T1, Adenosine receptor A3 (Homo sapiens) (UniProt P0DMS8); assay: In vitro inhibitory activity against human Adenosine A3 receptor at 10e-5 M
T1 sequence (whole entry): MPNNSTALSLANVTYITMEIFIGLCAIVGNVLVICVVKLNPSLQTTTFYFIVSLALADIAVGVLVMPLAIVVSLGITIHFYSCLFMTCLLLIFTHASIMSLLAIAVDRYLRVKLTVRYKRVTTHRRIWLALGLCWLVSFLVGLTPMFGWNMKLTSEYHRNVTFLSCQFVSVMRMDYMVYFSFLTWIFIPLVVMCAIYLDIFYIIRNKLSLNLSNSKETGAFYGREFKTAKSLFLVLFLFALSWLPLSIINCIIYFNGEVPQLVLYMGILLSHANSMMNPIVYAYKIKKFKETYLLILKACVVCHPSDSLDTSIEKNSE

Adenosine receptor A3 [2] = molecular target: T2, Adenosine receptor A3 (Homo sapiens, UniProt P0DMS8); assay: Inhibition of [35S]GTP-gamma-S, binding stimulated by 20 uM 5''-N-ethyluronamidoadenosine (NECA) in membranes of HEK293 cells expressing human Adenosine A3 receptor; format: functional, cell membranes
T2 sequence (P0DMS8 whole entry): T1 sequence (whole entry)

Adenosine receptor A3 [3] = molecular target: T2, Adenosine receptor A3; assay: In vitro binding affinity against human Adenosine A3 receptor
Adenosine receptor A3 [4] = molecular target: T2, Adenosine receptor A3; assay: Inhibition of [35S]GTP-gamma-S, binding stimulated by 5 uM 5''-N-ethyluronamidoadenosine (NECA) in membranes of HEK293 cells expressing human Adenosine A3 receptor; format: functional, cell membranes

Compound	inhibition [1] [%]	pKi (Adenosine receptor A3 [3])	other results
O=C(NCCc1c[nH]c2ccc(OCc3ccccc3)cc12)c1ccco1	70	–	–
CCSc1nnc2c(n1)OC(c1ccc(-c3ccc(Cl)cc3)o1)Nc1ccccc1-2 (stereo unspecified)	60	–	–
COc1ccc(-c2csc(NC3OC(=O)c4c3ccc(OC)c4OC)n2)cc1 (stereo unspecified)	–	5.89	pIC50 (Adenosine receptor A3 [2]): 6.59
Cc1ccc(N(CC(=O)N/N=C/c2ccccc2O)S(=O)(=O)c2ccccc2)cc1	65	–	–
CCOC(=O)CNC(c1ccccc1)c1cc(Br)ccc1NC(=O)c1ccccc1 (stereo unspecified)	–	5.51	pIC50 (Adenosine receptor A3 [4]): 6.39
COc1ccc(N(CC(=O)Nc2cccc(Cl)c2C)S(=O)(=O)c2ccccc2)cc1	65	–	–
CC(NC(=O)OCc1ccccc1)C(=O)Oc1cc(O)c2c(=O)cc(-c3ccccc3)oc2c1 (stereo unspecified)	60	–	–
CCOC(=O)c1c(NC(=O)Cc2ccccc2)sc2c1CCN(C(=O)OCC)C2	–	6.22	pIC50 (Adenosine receptor A3 [2]): 6.73
